Molecules are shown by their SMILES. Where a name gives a salt, the structure may show the parent alone.

Sequence of human ALK5 (P36897 80-503 limits assumed): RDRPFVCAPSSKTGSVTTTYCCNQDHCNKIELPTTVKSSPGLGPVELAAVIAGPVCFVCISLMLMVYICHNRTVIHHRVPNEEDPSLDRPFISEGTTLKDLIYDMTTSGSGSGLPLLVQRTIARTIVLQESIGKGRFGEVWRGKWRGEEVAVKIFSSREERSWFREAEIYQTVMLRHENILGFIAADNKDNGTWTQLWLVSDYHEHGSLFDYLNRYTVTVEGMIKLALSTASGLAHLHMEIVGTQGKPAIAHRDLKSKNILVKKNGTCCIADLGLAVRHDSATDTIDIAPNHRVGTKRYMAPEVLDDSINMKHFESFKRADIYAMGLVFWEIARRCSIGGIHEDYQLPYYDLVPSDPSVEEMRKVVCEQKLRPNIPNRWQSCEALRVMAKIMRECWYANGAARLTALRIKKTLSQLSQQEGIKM

This test has as its target human ALK5 (Homo sapiens (Human), UniProt P36897). The test is described as follows: ADP-GLO Kinases assay, ALK5 enzymatic activity. Type of test: biochemical. The conditions noted are these: purified recombinant human ALK5 2.6 nM, TGFβ1 peptide 94.5 μM, ATP 0.83 μM, 120 min, 25° C.; pIC50 converted to pKi using the Cheng-Prusoff equation. How it is done: The enzymatic activity of compounds of the present invention was monitored measuring the formation of ADP using the ADP-GLO Kinases assay. Following the incubation of the purified enzyme, a substrate and ATP, the produced ADP was converted into ATP, which in turn was converted into light by Ultra-Glo Luciferase. The luminescent signal positively correlated with ADP amount and kinase activity. Briefly, the kinase reaction was performed by incubating 2.6 nM of the purified, commercially available human ALK5 (recombinant TGF β1 N-term GST-tagged, 80-end), a final concentration of TGFβ1 peptide 94.5 μM (Promega, T36-58) and ultra-pure ATP (Promega V915B). The ATP concentration was set at the Km value (concentration of substrate which permits the enzyme to achieve half maximal velocity (Vmax)) of ALK5 (0.5 μM). Compound and ALK5 kinase were mixed and incubated for 15 min. Reactions were initiated by addition of ATP at a final concentration in the assay of 0.83 μM. After an incubation of 120 min, the reaction was stopped, and ADP production detected with ADP-Glo kit according to manufacturer's indications. All reaction and incubation steps were performed at 25° C. and the assays were performed in 384-well format and validated using a selection of reference compounds tested in 11-point concentration-response curve.
Results were expressed as pIC50 (negative logarithm of IC50) and subsequently converted to pKi (negative logarithm of […]) using the Cheng-Prusoff equation. The higher the value of pKi, the greater the inhibition of ALK5 activity.
For orientation: In ADP-Glo the light output rises with the ADP produced.
With `Cc1cccc(-c2nc3n(c2-c2ccc(F)c(NC(=O)CCN4CCN(C)CC4)c2)CCN3)n1` [Example 1, N-(2-fluoro-5-(6-(6-methylpyridin-2-yl)-2,3-dihydro-1H-imidazo[1,2-a]imidazol-5-yl)phenyl)-3-(4-methylpiperazin-1-yl)propanamide], the Ki is 1.26 to 7.94 nM.
Regarding `Cc1cccc(-c2nc3n(c2-c2ccc(F)c(NC(=O)CCN4CCCCC4)c2)CCN3)n1` [Example 2, N-(2-fluoro-5-(6-(6-methylpyridin-2-yl)-2,3-dihydro-1H-imidazo[1,2-a]imidazol-5-yl)phenyl)-3-(piperidin-1-yl)propanamide], the “ALK5 pKi” value is recorded as not below 9.0.
As to `Cc1cccc(-c2nc3n(c2-c2ccc(F)c(NC(=O)CCN4CCN(CCO)CC4)c2)CCN3)n1` [Example 3, N-(2-fluoro-5-(6-(6-methylpyridin-2-yl)-2,3-dihydro-1H-imidazo[1,2-a]imidazol-5-yl)phenyl)-3-(4-(2-hydroxyethyl)piperazin-1-yl)propanamide], the Ki was 1.26 to 7.94 nM.
On the same count and under the same terms, with `Cc1cccc(-c2nc3n(c2-c2ccc(F)c(NC(=O)CCN4CCN(CC(F)(F)F)CC4)c2)CCN3)n1` [Example 4, N-(2-fluoro-5-(6-(6-methylpyridin-2-yl)-2,3-dihydro-1H-imidazo[1,2-a]imidazol-5-yl)phenyl)-3-(4-(2,2,2-trifluoroethyl)piperazin-1-yl)propanamide] the figure was 1.26 to 7.94 nM; with `Cc1cccc(-c2nc3n(c2-c2ccc(F)c(NC(=O)CN(C)C)c2)CCN3)n1` [Example 5, 2-(Dimethylamino)-N-(2-fluoro-5-(6-(6-methylpyridin-2-yl)-2,3-dihydro-1H-imidazo[1,2-a]imidazol-5-yl)phenyl)acetamide], 10 to 31.6 nM.
Still for that read-out and setting: with `Cc1cccc(-c2nc3n(c2-c2ccc(F)c(NC(=O)CN4CCN(C)CC4)c2)CCN3)n1` [Example 6, N-(2-fluoro-5-(6-(6-methylpyridin-2-yl)-2,3-dihydro-1H-imidazo[1,2-a]imidazol-5-yl)phenyl)-2-(4-methylpiperazin-1-yl)acetamide] the figure was 10 to 31.6 nM; with `Cc1cccc(-c2nc3n(c2-c2ccc(F)c(NC(=O)CCCN4CCN(C)CC4)c2)CCN3)n1` [Example 7, N-(2-fluoro-5-(6-(6-methylpyridin-2-yl)-2,3-dihydro-1H-imidazo[1,2-a]imidazol-5-yl)phenyl)-4-(4-methylpiperazin-1-yl)butanamide], 1.26 to 7.94 nM; with `CN1CCN(CCC(=O)Nc2cc(-c3c(-c4cc(Cl)ccc4F)nc4n3CCN4)ccc2F)CC1` [Example 8, N-(5-(6-(5-chloro-2-fluorophenyl)-2,3-dihydro-1H-imidazo[1,2-a]imidazol-5-yl)-2-fluorophenyl)-3-(4-methylpiperazin-1-yl)propanamide], 1.26 to 7.94 nM.
The same measure, in the same setting: with `Cc1cccc(-c2nc3n(c2-c2ccc(F)c(NC(=O)CCN(C)C)c2)CCN3)n1` [Example 9, 3-(Dimethylamino)-N-(2-fluoro-5-(6-(6-methylpyridin-2-yl)-2,3-dihydro-1H-imidazo[1,2-a]imidazol-5-yl)phenyl)propanamide] the figure was not above 1 nM; with `O=C(CCN1CCCCC1)Nc1cc(-c2c(-c3cc(Cl)ccc3F)nc3n2CCN3)ccc1F` [Example 10, N-(5-(6-(5-chloro-2-fluorophenyl)-2,3-dihydro-1H-imidazo[1,2-a]imidazol-5-yl)-2-fluorophenyl)-3-(piperidin-1-yl)propanamide], not above 1 nM.
Regarding `Cc1cccc(-c2nc3n(c2-c2ccc(F)c(NC(=O)CCCN4CCCCC4)c2)CCN3)n1` [Example 11, N-(2-fluoro-5-(6-(6-methylpyridin-2-yl)-2,3-dihydro-1H-imidazo[1,2-a]imidazol-5-yl)phenyl)-4-(piperidin-1-yl)butanamide], the Ki is 1.26 to 7.94 nM.
On the same count and under the same terms, with `Cc1cccc(-c2nc3n(c2-c2ccc(F)c(NC(=O)CCC[N+]4(C)CCCCC4)c2)CCN3)n1` [Example 12, 1-(4-((2-Fluoro-5-(6-(6-methylpyridin-2-yl)-2,3-dihydro-1H-imidazo[1,2-a]imidazol-5-yl)phenyl)amino)-4-oxobutyl)-1-methylpiperidin-1-ium chloride hydrochloride] the figure was 1.26 to 7.94 nM; with `Cc1cccc(-c2nc3n(c2-c2ccc(F)c(NC4CCN(C(C)C)CC4)c2)CCN3)n1` [Example 13, N-(2-fluoro-5-(6-(6-methylpyridin-2-yl)-2,3-dihydro-1H-imidazo[1,2-a]imidazol-5-yl)phenyl)-1-isopropylpiperidin-4-amine], 10 to 31.6 nM.
`Cc1cccc(-c2nc3n(c2-c2ccc(F)c(NCC4CCN(C)CC4)c2)CCN3)n1` [Example 14, 2-Fluoro-N-((1-methylpiperidin-4-yl)methyl)-5-(6-(6-methylpyridin-2-yl)-2,3-dihydro-1H-imidazo[1,2-a]imidazol-5-yl)aniline]: the Ki was 1.26 to 7.94 nM.

For orientation: Ki means a measure of affinity in units of concentration, obtained from inhibition or displacement.
